Experimental data published in patent US20050074485A1, “Anti-inflammatory/anti-microbial peptides for use in dialysis” (priority 2003, published 2005).
“Also recorded” adds a separate entry of the source. Where a SMILES comes first, the peptide text is derived from it. Bridges are numbered along the chain shown (N, C = ends). Roman numbers before positions name the chains, in order. Where no end group is shown, it is not given here. [ ]: non-standard residue; d: D form.

Legend:
[1] = system: C. albicans (clinical isolate); assay: C. albicans viability by colony forming units; type: cell-based, Candida albicans; details: 10^−6 M
Protocol: C. albicans (clinical isolate) were obtained from the collection of the Department of Microbiology, Ospedale Maggiore di Milano. C. albicans were maintained on Sabouraud's agar slants and periodically transferred to Sabouraud's agar plates and incubated for 48 hours at 28° C. To prepare stationary growth phase yeast, a colony was taken from the agar plate and transferred into 30 ml Sabouraud-dextrose broth and incubated for 72 hours at 32° C. Cells were centrifuged at 100×g for 10 minutes and the pellet was washed twice with distilled water. Cells were counted and suspended in Hank's balanced salt solution (“HBSS”) to the desired concentration. […] C. albicans (I×10^6/ml in HBSS) was incubated in the presence or absence of α-MSH [1-13], KPV, (SEQ. ID NO.1) or the (“KPV dimer”) at concentrations in the range of 10^−15 to 10^−4M for 2 hours at 37° C. Cells were then washed in cold distilled water and diluted with HBSS to a concentration of 100 organisms/ml. One ml aliquots were dispensed on blood agar plates and incubated for 48 hours at 37° C. Organism viability was estimated from the number of colonies formed.
Fluconazole is a well established antifungal agent. […] The peptides and fluconazole were tested in concentrations of 10^−6 M. There were at least six replicates for each concentration of peptide.

[2] = system: Staphylococcus aureus (ATCC29213); assay: S. aureus viability by colony forming units; type: cell-based; details: 10^−15 to 10^−4M, 2 hours at 37° C.
Protocol: Staphylococcus aureus (ATCC29213) was obtained from the collection of the Department of Microbiology, Ospedale Maggiore di Milano. S. aureus (1×10^6/ml in HBSS) was incubated in the presence or absence of α-MSH [1-13] (SEQ ID NO: 6), α-MSH [11-13] (SEQ. ID NO. 1) or the KPV dimer (SEQ ID NO: 4) at concentrations in the range of 10^−15 to 10^−4M for 2 hours at 37° C. S. aureus were then washed in cold distilled water and diluted with HBSS to a concentration of 100 organisms/ml. One ml aliquots were dispensed on blood agar plates and incubated for 24 hours at 37° C. Organism viability was estimated from the number of colony forming units.

[3] = system: Enterococcus faecalis (MDR) (ATCC 51299); assay: Broth dilution turbidity test of growth inhibition; type: cell-based
Protocol: (§1) These organisms were subcultured onto blood agar plates and incubated for 16-24 hours at 35±2° C. An inoculated needle or loop was touched to each of four or five well isolated colonies of the same morphological type, and the inoculum inoculated into 5 mL of MHB.
(§2) The broth cultures were then allowed to incubate at 35±2° C. until turbidity appeared (usually 2 to 5 hours). […] This turbidity is half the density of a McFarland number one standard and is often referred to as McFarland 0.5 standard (approx. 1.5×10^8 CFU/mL). This turbidity standard was agitated on a vortex mixer immediately before use. Sealed tubes were stored in the dark at room temperature and replaced if the inocula are shown (by count) to be aberrant.
(§3) The broth culture was further diluted to 1:200 in MHB broth (to obtain a final concentration of 10^5 to 10^6 CFU/mL). To determine the initial concentration of the organism in the above solution, serial dilutions were performed 1:10 in MHB four times to achieve a final dilution of 10^−4. Aliquots 1.0 mL from each of the dilutions were placed in duplicate into sterile petri dishes. Approximately 15 to 20 mL of tempered (45±2° C.) MCTA agar media was added. The plates were incubated overnight at 35±2° C. for 16-20 hours. Following the incubation period, the colonies were counted.
(§4) These dilutions were developed according to the procedure: for each drug substance label 9 flasks (10 ml Volumetric) 1 through 9; for each sample add 3 mL of deionized (“DI”) water to a 10 mL volumetric flask; then transfer the amount of anti-microbial and anti-inflammatory peptides as specified below in Table 2; record the actual amount transferred in the laboratory notebook; and add the remaining amount of DI water to bring up to volume of 10 mL.
(§5) 100 μL of the anti-microbial and anti-inflammatory peptide solution from each of the flasks was then added to the correspondingly labeled well; to well number 10 add 100 μL sterile DI Water; and to all ten wells add 100 μL of inoculum created previously.
(§6) The procedure was repeated for each of the seven microorganisms tested.
(§7) Each well was tested for turbidity, as an indicator of growth.

[4] = system: Streptococcus pyogenes Group A (ATCC 19615); assay: Broth dilution turbidity test of growth inhibition; type: cell-based
Protocol: as §1, §2, §3, §4, §5, §6, §7

HIV transcription = details: 10^−5M; PMA (1 ng/mL) stimulated UI cells, 24 h
Excerpt: Total RNA was extracted by the guanidine thiocyanate phenol method using an RNA isolation kit (Tripure, Boehringer Mannheim, Indianapolis, Ind.), following the manufacturer's instructions. Ten ng of total RNA were separated by 0.8% agarose/formaldehyde gel electrophoresis and transferred onto nylon membrane. The filters were baked and hybridized for 18 hr with ^32P-labeled HIV-full length probe (kind gift of L. Turchetto and E. Vicenzi, S. Raffaele Hospital, Milan, Italy). The radiolabeling reaction was performed using a DNA labeling kit (Ready-to-go, Pharmacia Biotech, San Francisco, Calif.). Filters were washed and exposed to X-ray film for 5 days. The labeled probe was removed by washing at 80° C. in 0.1×SSC containing 0.1% sodium dodecyl sulphate and then rehybridized with (^32P-labeled glyceraldehyde-3-phosphate dehydrogenase) (GAPDH) cDNA probe. Densitometric analysis was performed using ImageMaster VDS 3.0 software (Pharmacia Biotech) and results were expressed as density units.

S. aureus = assay: Urokinase-induced growth enhancement of S. aureus; type: cell-based, Staphylococcus aureus; details: 10^−6 M, recombinant human urokinase 500 U, four hours at 37° C.
Protocol: In this experiment, the influence of α-MSH on urokinase-induced growth-enhancement is determined. […] (SEQ. ID NO.1) at 10^−6 M. Appropriate dilutions of S. aureus were dispensed on agar plates and colonies counted after 24 hours incubation at 37° C.

[5] = in vivo
[6] = in vivo; remark: listed apart in the source
[7] = system: Staphylococcus epidermidis (ATCC 12228); assay: Broth dilution turbidity test of growth inhibition; type: cell-based
Protocol: The following microorganisms were used in the Example: Candida albicans (ATCC 10231); Enterococcus faecalis (MDR) (ATCC 51299); Escherichia coli (ATCC 11229); Pseudomonas aeruginosa (ATCC 9027); Staphylococcus aureus (ATCC 6538); Staphylococcus epidermidis (ATCC 12228); and Streptococcus pyogenes Group A (ATCC 19615). These organisms were subcultured onto blood agar plates and incubated for 16-24 hours at 35±2° C. An inoculated needle or loop was touched to each of four or five well isolated colonies of the same morphological type, and the inoculum inoculated into 5 mL of MHB.
as §2
The broth culture was further diluted to 1:200 in MHB broth (to obtain a final concentration of 10^5 to 10^6 CFU/mL). To determine the initial concentration of the organism in the above solution, serial dilutions were performed 1:10 in MHB four times to achieve a final dilution of 10^−4. […] Following the incubation period, the colonies were counted. […]

[8] = system: Candida albicans (ATCC 10231); assay: Broth dilution turbidity test of growth inhibition; type: cell-based; details: turbidity after 16-20 hours at 35±2° C.
Protocol: as §1, §2, §3, §4, §5, §6, §7

[9] = system: HIV-1 infected promonocytic UI cell line; assay: HIV-p24 release from TNF-α stimulated UI cells (ELISA); type: cell-based; details: 48 hr
[10] = cited from earlier work; for antipyretic potency relative to α-MSH (11-13): centrally administered, rabbit, Deeter et al. 1989
[11] = Hiltz et al. 1991; cited from earlier work
[12] = turbidity after 16-20 hours at 35±2° C.

With “ACTH (1-39): adrenocorticotropic hormone (SYSMEHFRWGKPVGKKRRPVKVYPAKEDDEASEAFPLEF; listed as Homo sapiens) [reference compound]” the “reduction of C. albicans viability in comparison with fluconazole” value (shortened to “reduction of C. albicans viability”) [1] was “did not reduce C. albicans viability”.

With Lysine-Proline-Valine [KPV] the “S. aureus colony formation (CFU)” value [2] was “inhibited S. aureus colony formation”, the “reduction of C. albicans viability” value [1] was “most effective” and the “effectiveness against the organism (in words)” value (from here on “effectiveness”) [3] was “effective”. The “effectiveness” value [4] was “effective”, the “reduction of spliced and unspliced HIV-1 RNA” value (HIV transcription) was “approximately 50%” and the “urokinase-enhanced S. aureus colony formation” value (S. aureus) was “significantly inhibited the enhancing effect of urokinase; also recorded: significantly inhibited this urokinase-enhancing effect”.

For CC(=O)N[C@@H](CSSC[C@H](NC(C)=O)C(=O)N[C@@H](CCCCN)C(=O)N1CCC[C@H]1C(=O)N[C@H](C(N)=O)C(C)C)C(=O)N[C@@H](CCCCN)C(=O)N1CCC[C@H]1C(=O)N[C@H](C(N)=O)C(C)C [KPV dimer, Val-Pro-Lys-AcCys-s-s-CysAc-Lys-Pro-Val] (I: Ac-CKPV-NH2 / II: Ac-CKPV-NH2; disulfide I:1-II:1), the safety and tolerability [5] was “remarkable safety of and tolerability” and the negative side effects [6] was “without negative side effects”.

In the case of “SYSMEHdFRWGKPV (SYSMEH[dF]RWGKPV; ends and bridges not checked) [Phe7]”, the “effectiveness” value [7] is reported as “very effective”, the “minimal effective concentration that completely inhibited growth” value [7, 12] is reported as 10^−4 M and the “minimal effective concentration that completely inhibited growth” value [8] is reported as 10^−3 M. The “effectiveness” value [3] was “effective”, the “minimal effective concentration that completely inhibited growth” value [3, 12] was 10^−3 M and the “effectiveness” value [4] was “effective”. The “minimal effective concentration that completely inhibited growth” value [4, 12] was 10^−4 M.

For “HFRWGKPV (listed as Homo sapiens) [α-MSH [6-13]]”, the “reduction of C. albicans viability” value [1] was “most effective”.

With SYSMEHFRWGKPV [α-MSH [1-13]] the “S. aureus colony formation (CFU)” value [2] was “inhibited S. aureus colony formation”, the “reduction of C. albicans viability” value [1] was “most effective” and the “inhibition of p24 release” value ([9]; 10^−5 M, TNF-α (10 ng/mL) stimulated UI cells) was 52.7%. The “p24 release from TNF-α stimulated UI cells (in words)” value ([9]; 10^−13 to 10^−4 M) was “significantly inhibited p24 release”, the “urokinase-enhanced S. aureus colony formation” value (S. aureus) was “significantly inhibited this urokinase-enhancing effect” and the “urokinase-enhanced S. aureus colony formation” value (S. aureus; listed as α-MSH) was “significantly inhibited the enhancing effect of urokinase”.

For “Met-Glu-His-Phe-Arg-Trp-Gly (EHFRWG; listed as Homo sapiens) [α-MSH [4-10], reference compound]”, the “inhibition of C. albicans CFU” value [1] was “approximately 50%”.

For “9-13 sequence: α-MSH fragment 9-13 (WGKPV; ends and bridges not checked; UniProt P01189 146-150, looked up, fragment)”, the “antipyretic potency relative to α-MSH (11-13)” value [10] is listed as “almost devoid of activity”.

In the case of “8-13 sequence: α-MSH fragment 8-13 (RWGKPV; ends and bridges not checked; UniProt P01189 145-150, looked up, fragment)”, the “antipyretic potency relative to α-MSH (11-13)” value [10] is listed as “greater than that of the 11-13 sequence”.

In the case of “ACTH fragment (18-39): ACTH fragment (18-39) (PVKVYPAKEDDEASEAFPLEF; listed as Homo sapiens) [reference compound]”, the “reduction of C. albicans viability” value [1] is reported as “did not reduce C. albicans viability”.

In the case of [dK11] α-MSH (11-13), the “anti-inflammatory potency relative to L-form tripeptide α-MSH 11-13” value [11] is given as “same general potency as the L-form”.

In the case of “10-13 sequence: α-MSH fragment formed by addition of glycine to α-MSH (11-13) (GKPV; ends and bridges not checked; UniProt P01189 147-150, looked up, fragment)”, the “antipyretic potency relative to α-MSH (11-13)” value [10] is listed as “slightly decreased potency”.

In the case of [Nle4 dPhe7]α-MSH [NDP], the “minimal effective concentration that completely inhibited growth” value [8] is listed as 10^−3 M and the “potency in reducing fever relative to the parent peptide” value ([10]; Holdeman and Lipton 1985) is listed as “approximately ten times more potent than the parent peptide”.
